US8722863B2, “Solid state forms of fidaxomycin and processes for preparation thereof” (Teva Pharmaceutical Works Ltd., priority 2012, dated 2014)

Assays:
Clostridium difficile = conditions: cited from earlier work
[1] = stability under extreme conditions; format: physicochemical
Excerpt: As discussed above, Form C of Fidaxomycin has advantageous properties. In particular, Form C of Fidaxomycin of the present invention can be reproduced in a high quality, i.e., chemical and polymorphical purity. The X-ray powder diffraction pattern of Form C is obtained in high crystallinity, as indicated by a high resolution PXRD pattern with relatively sharp, defined peaks. In addition, Form C is stable under extreme conditions.

[2] = hygroscopicity test according to the European pharmacopeia 5.11; format: physicochemical; conditions: Ph. Eur. chapter 5.11 hygroscopicity test
Excerpt: As used herein and unless indicated otherwise, the term “non-hygroscopic” in relation to crystalline Fidaxomycin refers to less than 0.5%, and preferably less than 0.2% (w/w) absorption of water, for example atmospheric water, by the crystalline Fidaxomycin, as determined according to Ph. Eur. chapter 5.11 (“Hygroscopicity”).
As discussed above, Fidaxomycin Form Z1 has advantageous properties. In particular, the crystalline Fidaxomycin Form Z1 of the present invention is non-hygroscopic. When performing the hygroscopicity test according to the European pharmacopeia 5.11, the mass increase of Form Z1 was below about 0.2%. The advantageous of form Z1 as non-hygroscopic material provides better processing of Fidaxomycin in formulation. e.g., being less sticky and stable following granulation procedure.

[3] = stability in formulations; format: physicochemical; conditions: retains the anhydrous polymorph
Excerpt: The ability to retain the anhydrous polymorph provides an opportunity to improve the performance characteristic in formulation e.g. dissolution profile and bioavailability.

CCc1c(Cl)c(O)c(Cl)c(O)c1C(=O)O[C@H]1[C@H](O)[C@H](OC)[C@H](OC/C2=C\C=C\C[C@H](O)/C(C)=C/[C@H](CC)[C@@H](O[C@@H]3OC(C)(C)[C@@H](OC(=O)C(C)C)[C@H](O)[C@@H]3O)/C(C)=C/C(C)=C/C[C@@H]([C@@H](C)O)OC2=O)O[C@@H]1C [Fidaxomycin, 3-(((6-Deoxy-4-O-(3,5-dichloro-2-ethyl-4,6-dihydroxybenzoyl)-2-O-methyl-β-D-mannopyranosyl)oxy)-methyl)-12(R)-[(6-deoxy-5-C-methyl-4-O-(2-methyl-1-oxopropyl)-b-D-lyxo-hexopyranosyl)oxy]-11(S)-ethyl-8(S)-hydroxy-18(S)-(1(R)-hydroxyethyl)-9,13,15-trimethyloxacyclooctadeca-3,5,9,13,15-pentaene-2-one]
activity against Clostridium difficile (Clostridium difficile): shows activity

CCc1c(Cl)c(O)c(Cl)c(O)c1C(=O)O[C@H]1[C@H](O)[C@H](OC)[C@H](OC/C2=C\C=C\C[C@H](O)/C(C)=C/[C@H](CC)[C@@H](O[C@@H]3OC(C)(C)[C@@H](OC(=O)C(C)C)[C@H](O)[C@@H]3O)/C(C)=C/C(C)=C/C[C@@H]([C@@H](C)O)OC2=O)O[C@@H]1C [Form C]
stability under extreme conditions [1]: stable

CCc1c(Cl)c(O)c(Cl)c(O)c1C(=O)O[C@H]1[C@H](O)[C@H](OC)[C@H](OC/C2=C\C=C\C[C@H](O)/C(C)=C/[C@H](CC)[C@@H](O[C@@H]3OC(C)(C)[C@@H](OC(=O)C(C)C)[C@H](O)[C@@H]3O)/C(C)=C/C(C)=C/C[C@@H]([C@@H](C)O)OC2=O)O[C@@H]1C [Form Z1]
mass increase (hygroscopicity) [2]: below 0.2% | stability in formulations [3]: excellent stability
